According to patent US11634451B2, “Method for the site-specific enzymatic labelling of nucleic acids in vitro by incorporation of unnatural nucleotides” (The Scripps Research Institute, priority 2013, dated 2023):

Experiments:
Format in all cases: biochemical
[1] = target: T1, Klenow fragment of E. coli DNA polymerase I (Escherichia coli, UniProt P00582); assay: Presteady-state kinetics: incorporation of unnatural triphosphate opposite dNaM and extension; conditions: 2 μM dCTP, 10 s, dXTPs paired with dNaM; for % Incorporation: 40 nM unnatural triphosphate; for % Extension: 10 μM unnatural triphosphate
T1 construct: the Klenow fragment of E. coli DNA polymerase I
Text: Exemplary methods for analyzing unnatural base pair synthesis efficiency (insertion of an unnatural nucleobase opposite its partner in a template) and extension (continued primer elongation) are provided herein. One or both of the nucleobases in an unnatural base pair, in various embodiments, may be a linker-derivatized unnatural nucleobase. One method uses a presteady-state assay. The assay is based on determining, under a fixed set of conditions, the amount of a primer (e.g. 23-mer) that is extended by addition of the unnatural nucleotide opposite its complementary nucleotide in a template (e.g., 45-mer) by a polymerase (e.g., the Klenow fragment of E. coli DNA polymerase I). In this assay, the efficiency of unnatural base pair synthesis is characterized by measuring the percent incorporation (% inc) at a given concentration of the unnatural and next correct triphosphate, for example using a ratio such as [24-mer+25-mer]/[23-mer+24-mer+25-mer]. In this assay, the efficiency of extension is characterized by measuring the percent extension (% ext) at a given concentration of the next correct nucleotide and saturating concentrations of unnatural nucleotide, for example using a ratio [25-mer]/[24-mer+25-mer]. Results from an exemplary presteady-state assay are shown in Table 1, wherein the unnatural triphosphate is 5SICS, FPT1, TPT1, TPT2, TPT3, FTPT3, TPT3^PA, or 5SICS^PA. In some embodiments, the percent incorporation of an unnatural nucleobase is at least 60%, 65%, 70%, 71%, 72%, 73%, 74%, 75%, 76%, 77%, 78%, 79%, 80%, 81%, 82%, 83%, 84%, 85%, 86%, 87%, 88%, 89%, 90%, 91%, 92%, 93%, 94%, 95%, 96%, 97%, 98%, or 99%. In some embodiments, the percent extension of a next correct nucleotide following insertion of an unnatural nucleobase is at least 30%, 31%, 32%, 33%, 34%, 35%, 36%, 37%, 38%, 39%, 40%, 41%, 42%, 43%, 44%, 45%, 46%, 47%, 48%, 49%, 50%, 55%, 60%, 65%, 70%, 75%, 80%, 85%, 90% or greater. In some embodiments, synthesis efficiency is increased by derivatizing the unnatural nucleobase. For example, by the addition of a linker, a protected linker, and/or a linker conjugated to a cargo molecule. As another example, derivatization includes atom substitutions, additions, or deletions. In some embodiments, percent extension is increased by derivatizing the unnatural nucleobase. Derivatization of an unnatural nucleobase, in some instances, increases by at least 1-2 orders of magnitude the efficiency of insertion of the nucleotide complementary to the base pair in the template. This increase in efficiency may be due to an increase kcat and a decreased KM.
^aIncorporation assay conditions: 40 nM unnatural triphosphate, […], 10s. ^bExtension assay conditions: […], 2 μM dCTP, 10 s. dXTPs are paired with dNaM.

OneTaq polymerase = assay: PCR-based screen and amplification of DNA containing unnatural base pairs, OneTaq (Example 1); conditions: OneTaq
Description: (§1) The triphosphates of the 6 group were prepared from the previously reported nucleosides (Kubelka, T., Slavetinska, L., Eigner, V. and Hocek, M. Synthesis of 2,6-disubstituted pyridin-3-yl C-2′-deoxyribonucleosides through chemoselective transformations of bromo-chloropyridine C-nucleosides. Org. Biomol. Chem., 11, 4702-4718) according to Ludwig, J. and Eckstein, F. Rapid and efficient synthesis of nucleoside 5′-0-(1-thiotriphosphates), 5′-triphosphates and 2′,3′-cyclophosphorothioates using 2-chloro-4H-1,3,2-benzodioxaphosphorin-4-one. J. Org. Chem., 54, 631-635. The purity of all other triphosphates was confirmed by MALDI-TOF and UV-VIS. Taq and OneTaq DNA polymerases were purchased from New England Biolabs (Ipswich, Mass.). A mixture of dNTPs was purchased from Fermentas (Glen Burnie, Md.). SYBR Green I Nucleic Acid Gel Stain (10,000×) was purchased from Life Technologies (Carlsbad, Calif.). The synthesis of the DNA templates, D8 (Malyshev, D. A., Dhami, K., Quach, H. T., Lavergne, T., Ordoukhanian, P., Torkamani, A. and Romesberg, F. E. Efficient and sequence-independent replication of DNA containing a third base pair establishes a functional six-letter genetic alphabet. Proc. Natl. Acad. Sci. USA, 109, 12005-12010), used for screening rounds 1-5, and D6 (Malyshev, D. A., Seo, Y. J., Ordoukhanian, P. and Romesberg, F. E. PCR with an expanded genetic alphabet. J. Am. Chem. Soc., 131, 14620-14621), used for all other amplifications, was described previously. Sanger sequencing was carried out as described previously (Malyshev, D. A., Dhami, K., Quach, H. T., Lavergne, T., Ordoukhanian, P., Torkamani, A. and Romesberg, F. E. Efficient and sequence-independent replication of DNA containing a third base pair establishes a functional six-letter genetic alphabet. Proc. Natl. Acad. Sci. USA, 109, 12005-12010). Raw Sanger sequencing traces were used to determine the percent retention of the unnatural base pairs, which was converted to fidelity per doubling, as described (Malyshev, D. A., Dhami, K., Quach, H. T., Lavergne, T., Ordoukhanian, P., Torkamani, A. and Romesberg, F. E. Efficient and sequence-independent replication of DNA containing a third base pair establishes a functional six-letter genetic alphabet. Proc. Natl. Acad. Sci. USA, 109, 12005-12010; Malyshev, D. A., Seo, Y. J., Ordoukhanian, P. and Romesberg, F. E. PCR with an expanded genetic alphabet. J. Am. Chem. Soc., 131, 14620-14621).
(§2) All PCR amplifications were performed in a CFX Connect Real-Time PCR Detection System (Bio-Rad), in a total volume of 25 μL using the following conditions: 1× OneTaq reaction buffer, 0.5× Sybr Green I, MgSO4 adjusted to 4.0 mM, 0.2 mM of each dNTP, 50 μM of each unnatural triphosphate, […] of Primer1 and Primer2 (See Table 2), and 0.02 U/μl of the DNA polymerase. Other conditions specific for each round of screening are described in Table 3. Amplified products were purified using DNA Clean and Concentrator-5 spin columns from Zymo Research (Irvine, Calif.). After purification, the PCR products were sequenced on a 3730 DNA Analyzer (Applied Biosystems) to determine the retention of the unnatural base pair as described below. Fidelity was characterized from unnatural base pair (UBP) retention as determined by sequencing with Primer1 on a 3730 DNA Analyzer (Applied Biosystems).
(§3) Specific PCR assay conditions. PCR with the most promising UBPs was carried out with the conditions as described in Table 3. PCR products were further purified on […] gels, followed by single band excision and subsequent clean up using the Zymo Research Zymoclean Gel DNA Recovery Kit. After elution with 20 μl of water, the DNA concentration was measured using fluorescent dye binding (Quant-iT dsDNA HS Assay kit, Life Technologies), and purified amplicons were sequenced in triplicate with both Primer1 and Primer2 to determine UBP retention and thus amplification fidelity. […]

Taq polymerase [2] = target: T2, Taq polymerase (Thermus aquaticus, UniProt P19821); assay: PCR-based screen and amplification of DNA containing unnatural base pairs, Taq (Example 1); conditions: Taq, 10 s Extension, 52 cycles, D6 template
T2 construct: purchased New England Biolabs (Ipswich, Mass.)
Description: as §1, §2, §3

OneTaq = assay: PCR amplification assay to determine fidelity, OneTaq (Example 3)
Description: (§4) PCR assay. PCR amplifications were performed in a total volume of 25 μL and with conditions specific for each assay as described in Table 9. After amplification, a 5 μL aliquot was analyzed on a 6% non-denaturing PAGE gel ran along with 50 bp ladder (Life Technologies) to confirm amplicon size. The remaining solution was purified by spin-column (DNA Clean and Concentrator-5; Zymo Research, Irvine, Calif.), followed by 4% agarose gel, recovered with Zymoclean Gel DNA Recovery Kit (Zymo Research), quantified by fluorescent dye binding (Quant-iT dsDNA HS Assay kit, Life Technologies), and sequenced on a 3730 DNA Analyzer (Applied Biosystems). Fidelity was determined as the average % retention of the unnatural base pair per doubling as described below.
(§5) Determination of fidelity. The percent retention of an unnatural base pair (F) was measured using raw sequencing data and normalized to fidelities per doubling. Briefly, the presence of an unnatural nucleotide leads to a sharp termination of the sequencing profile, while mutation to a natural nucleotide results in “readthrough”. The extent of the “read-through” is thus inversely correlated with the retention of the unnatural base pair. To use the sequencing data as a quantitative measurement of PCR fidelity, we performed calibration experiments in the range of 50-100% retention of the unnatural base pair. Therefore, low retention (<50%) and high “read-through” make the quantification inaccurate.
(§6) Quantification of the high retention (>50%) was performed by adjusting the start and stop points for the Sequencing Analysis software (Applied Biosystems) and then determining the average signal intensity individually for each channel (A, C, G and T) for peaks within those defined points (35-45 nucleotides in length) before (section L) and S36 after (section R) the unnatural nucleotide. The R/L ratio was normalized using sequencing calibration plots to account for both noise in the sequencing chromatograms and the read-through in the control samples. […]

Taq polymerase [3] = target: T2, Taq polymerase; assay: PCR amplification assay to determine fidelity, Taq (Example 3)
Description: as §4, §5, §6

[4] = 1 min Extension, 52 cycles, D6 template
[5] = OneTaq, standard PCR conditions

T1 sequence (P00582 324-928): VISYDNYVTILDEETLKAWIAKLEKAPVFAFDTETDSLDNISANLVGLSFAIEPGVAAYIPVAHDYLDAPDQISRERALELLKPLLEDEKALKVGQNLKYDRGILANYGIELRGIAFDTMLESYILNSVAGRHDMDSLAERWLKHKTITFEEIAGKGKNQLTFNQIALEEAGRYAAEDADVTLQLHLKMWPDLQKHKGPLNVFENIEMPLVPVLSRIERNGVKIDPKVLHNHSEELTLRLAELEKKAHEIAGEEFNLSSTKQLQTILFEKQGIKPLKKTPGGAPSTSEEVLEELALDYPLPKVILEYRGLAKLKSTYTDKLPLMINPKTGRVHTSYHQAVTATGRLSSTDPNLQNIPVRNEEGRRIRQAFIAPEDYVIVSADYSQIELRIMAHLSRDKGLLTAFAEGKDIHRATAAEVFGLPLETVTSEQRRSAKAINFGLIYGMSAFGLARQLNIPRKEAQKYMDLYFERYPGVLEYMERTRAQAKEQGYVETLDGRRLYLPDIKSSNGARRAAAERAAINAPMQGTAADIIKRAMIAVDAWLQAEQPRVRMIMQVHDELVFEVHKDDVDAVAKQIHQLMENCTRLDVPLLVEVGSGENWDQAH
T2 sequence (P19821 whole entry): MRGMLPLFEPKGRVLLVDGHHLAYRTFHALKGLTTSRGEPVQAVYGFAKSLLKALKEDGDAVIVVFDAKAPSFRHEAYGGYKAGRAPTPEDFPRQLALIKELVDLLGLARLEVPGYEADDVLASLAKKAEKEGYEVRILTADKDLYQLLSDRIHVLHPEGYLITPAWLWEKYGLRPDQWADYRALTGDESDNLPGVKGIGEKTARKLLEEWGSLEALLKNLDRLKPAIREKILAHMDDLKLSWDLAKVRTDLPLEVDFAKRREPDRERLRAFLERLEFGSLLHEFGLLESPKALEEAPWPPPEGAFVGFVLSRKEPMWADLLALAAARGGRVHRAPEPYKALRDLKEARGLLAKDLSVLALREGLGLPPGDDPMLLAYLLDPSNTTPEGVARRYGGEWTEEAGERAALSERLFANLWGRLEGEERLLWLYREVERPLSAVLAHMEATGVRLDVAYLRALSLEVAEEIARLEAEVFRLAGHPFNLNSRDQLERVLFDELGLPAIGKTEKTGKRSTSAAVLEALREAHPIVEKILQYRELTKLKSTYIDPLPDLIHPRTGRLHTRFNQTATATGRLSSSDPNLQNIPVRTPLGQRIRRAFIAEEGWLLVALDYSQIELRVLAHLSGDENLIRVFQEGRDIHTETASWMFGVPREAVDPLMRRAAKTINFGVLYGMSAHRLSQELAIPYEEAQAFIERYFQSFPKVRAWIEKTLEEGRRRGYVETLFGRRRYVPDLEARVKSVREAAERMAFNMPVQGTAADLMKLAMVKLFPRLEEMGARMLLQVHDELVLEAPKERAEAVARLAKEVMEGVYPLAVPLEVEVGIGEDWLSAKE

SMILES | % Incorporation [1] [%] | % Extension [1] [%] | Amplification, ×10^12 (OneTaq polymerase; [4]) | Fidelity per Doubling, % (OneTaq polymerase; [4]) [%] | Retention, % (OneTaq polymerase; [4]) [%] | Amplification, ×10^12 (Taq polymerase [2]) | Fidelity per Doubling, % (Taq polymerase [2]) [%] | Retention, % (Taq polymerase [2]) [%] | also measured
Cc1cc2c(=S)n([C@H]3C[C@H](O)[C@@H](COP(=O)(O)OP(=O)(O)OP(=O)(O)O)O3)ccc2o1 [FPT1] | 7.2 ± 0.2 | 32.0 ± 1.5 | – | – | – | – | – | – | –
O=P(O)(O)OP(=O)(O)OP(=O)(O)OC[C@H]1O[C@@H](n2cc(F)c3ccsc3c2=S)C[C@@H]1O [FTPT3] | 66.3 ± 0.5 | 33.8 ± 0.2 | – | – | – | – | – | – | –
Cc1cc2c(=S)n([C@H]3C[C@H](O)[C@@H](COP(=O)(O)OP(=O)(O)OP(=O)(O)O)O3)ccc2s1 [TPT1] | 28.7 ± 0.5 | 8.8 ± 0.2 | – | – | – | – | – | – | –
Cc1cc2ccn([C@H]3C[C@H](O)[C@@H](COP(=O)(O)OP(=O)(O)OP(=O)(O)O)O3)c(=S)c2s1 [TPT2] | 65.7 ± 0.5 | 34.5 ± 0.5 | – | – | – | – | – | – | –
C#Cc1cc(OC)c([C@H]2C[C@H](O)[C@@H](COP(=O)(O)OP(=O)(O)OP(=O)(O)O)O2)cc1F.O=P(O)(O)OP(=O)(O)OP(=O)(O)OC[C@H]1O[C@@H](n2ccc3ccsc3c2=S)C[C@@H]1O [TPT3-FEMO] | – | – | 10.4 ×10^12 | 99.55 ± 0.03 | 82.2 ± 1.0 | 5.0 ×10^12 | 99.44 ± 0.09 | 79 ± 3 | –
COc1cc(I)c(F)cc1[C@H]1C[C@H](O)[C@@H](COP(=O)(O)OP(=O)(O)OP(=O)(O)O)O1.O=P(O)(O)OP(=O)(O)OP(=O)(O)OC[C@H]1O[C@@H](n2ccc3ccsc3c2=S)C[C@@H]1O [TPT3-FIMO] | – | – | 8.7 ×10^12 | 99.61 ± 0.03 | 84.7 ± 1.1 | 8.5 ×10^12 | 99.60 ± 0.09 | 84 ± 3 | –
COc1cc2ccccc2cc1[C@H]1C[C@H](O)[C@@H](COP(=O)(O)OP(=O)(O)OP(=O)(O)O)O1.O=P(O)(O)OP(=O)(O)OP(=O)(O)OC[C@H]1O[C@@H](n2ccc3ccsc3c2=S)C[C@@H]1O [TPT3-NaM] | – | – | 8.3 ×10^12 | 99.79 ± 0.03 | 91.2 ± 1.3 | 5.8 ×10^12 | 99.66 ± 0.01 | 86.5 ± 0.5 | Fidelity, % (OneTaq polymerase; 16 cycles, 1 min extension): 99.92 ± 0.11%; Retention, % (OneTaq polymerase; 16 cycles, 1 min extension): 99.23 ± 1.12%; Amplification (OneTaq polymerase; 16 cycles, 1 min extension, -^a = no amplification was detected): 1004; Fidelity, % (OneTaq; OneTaq PCR (48 cycles), D6 template, dXTP with dNaMTP): > 99.98%; amplification efficiency relative to DNA containing just the natural base pairs (OneTaq; [5]): 4 fold lower; error rate (OneTaq; [5]): 10^−4 per nucleotide; Fidelity, % (Taq polymerase [3]; Taq PCR (20 cycles), D6 template, dXTP with dNaMTP): 99.7%; amplification efficiency relative to a natural base pair (Taq polymerase [3]; Taq polymerase): 2.5 fold lower; error rate (Taq polymerase [3]; Taq polymerase): 10^−3
